Test results: patent publication US4798844A, “Chemotherapeutant composition” (Shikoku Chemicals Corporation, priority 1987, dated 1989)
Structures can show the parent of a compound that is named as a salt.

Assays:
Aspergillus fumigatus = assay: Antimicrobial activity to pathogenic true fungi (MIC); format: cell-based; details: Sabourauds agar medium, 25° C., 7 to 14 days
Protocol: (§1) A true fungus shown in Table 1 was cultured in Sabourauds agar medium at 25° C. for 7 to 14 days, and the minimum inhibitory concentration (MIC value, μg/ml) was determined.

Candida albicans [1] = assay: as above; format: cell-based; details: Sabourauds agar medium, 25° C., 7 to 14 days
Protocol: as §1

Aspergillus niger = assay: as above; format: cell-based; details: Sabourauds agar medium, 25° C., 7 to 14 days
Protocol: as §1

Trichophyton tonsurans = assay: as above; format: cell-based; details: Sabourauds agar medium, 25° C., 7 to 14 days
Protocol: as §1

Microsporum gypseum = assay: as above; format: cell-based; details: Nannizzia gypsea; Sabourauds agar medium, 25° C., 7 to 14 days
Protocol: as §1

[2] = tested on: Trichophyton mentagrophytes; assay: as above; format: cell-based; details: Sabourauds agar medium, 25° C., 7 to 14 days
Protocol: as §1

Trichophyton rubrum = assay: as above; format: cell-based; details: Sabourauds agar medium, 25° C., 7 to 14 days
Protocol: as §1

[3] = tested on: Trichophyton mentagrophytes; assay: Curative effect to trichophytosis; format: in vivo, guinea pig; details: for Number of Colonies in Skin Pieces after 3 days' stoppage of administration: 10 days, then 3 days stopped, control 3.4 × 10^3; for Number of Colonies in Skin Pieces after 10 days' administration: control 4.1 × 10^3
Description: A guinea pig was skin-infected with Trichophyton mentagrophytes, and after two days had passed from the infection, the compound obtained in Example 1 was orally administered in the form of a suspension in gum arabic once a day for 10 days and the pharmaceutical effect was examined. Then, the administraion of the compound was stopped for 3 days and the recovery state was examined.

skin = assay: Primary irritation to skin; format: in vivo, rabbit
Description: It is seen that the compound is a non-irritating substance.

Staphylococcus aureus = assay: Antimicrobial activity to pathogenic bacteria (MIC, agar plate dilution); format: cell-based; details: Japanese Chemotherapeutic Association
Protocol: (§2) The minimum inhibitory concentrations to pathogenic bacteria shown in Table 2 were determined by the agar plate dilution process according to the standard method of the Japanese Chemotherapeutic Association.

Streptococcus pyogenes = assay: as above; format: cell-based; details: Japanese Chemotherapeutic Association
Protocol: as §2

Bacillus subtilis = assay: as above; format: cell-based; details: Japanese Chemotherapeutic Association
Protocol: as §2

Streptococcus faecalis = assay: as above; format: cell-based; details: Enterococcus faecalis, Japanese Chemotherapeutic Association
Protocol: as §2

[4] = Migration in blood after oral administration; format: in vivo; details: rat, oral 300 mg/kg; for Concentration in Blood: gum arabic suspension, compound bonded with small blood protein (fraction MW 10,000)
Protocol: The compound obtained in Example 1 was orally administered at a dose of 300 mg/kg in the form of a suspension in gum arabic to a rat, and the change of the concentration in blood was examined by the high-speed liquid chromatography.
Each value is the concentration of the compound bonded with a blood protein having a small molecular weight (fraction molecular weight=10,000).

[5] = Acute toxicity (oral LD50); format: in vivo; details: mouse, in vivo, po, LD50 Value
Description: (§3) It is seen that the actue toxicity of the compound is very low.

mouse = assay: Acute toxicity (oral LD50); format: in vivo
Description: as §3

Candida albicans [6] = assay: Curative effect to candidiasis; format: in vivo, mouse; details: after two days; for Survival Ratio: 1.4 hours after infection, control 0/3
Protocol: A mouse was infected with Candida albicans, and when 1.4 hours had passed from the infection, the compound obtained in Example 1 was orally administered in the form of a suspension in gum arabic. After two days, the pharmaceutical effect was examined.

## O=C(C(=Cc1ccc(Cl)cc1Cl)n1ccnc1)c1ccc(Cl)cc1 [Example 1, 1-(4-chlorophenyl)-2-(1H-imidazolyl)-3-(2,4-dichlorophenyl)-2-propen-1-onehydrochloride]
Aspergillus fumigatus
  MIC: 3.12 µg/mL
Candida albicans [1]
  MIC: < 6.25 µg/mL
Aspergillus niger
  MIC: 3.12 µg/mL
Trichophyton tonsurans
  MIC: < 1.25 µg/mL
Microsporum gypseum
  MIC: < 1.25 µg/mL
[2]
  MIC: < 1.25 µg/mL
Trichophyton rubrum
  MIC: < 1.25 µg/mL
[3]; 50 mg/kg oral once a day
  Number of Colonies in Skin Pieces after 3 days' stoppage of administration: annihilated
  Number of Colonies in Skin Pieces after 10 days' administration: annihilated
[3]; 100 mg/kg oral once a day
  Number of Colonies in Skin Pieces after 3 days' stoppage of administration: annihilated
  Number of Colonies in Skin Pieces after 10 days' administration: annihilated
skin; in words
  primary irritation to skin: non-irritating
skin; rabbit, coating concentration 100%
  Primary Irritation Ratio: 0.72
Staphylococcus aureus
  MIC: 1.56 µg/mL
Streptococcus pyogenes
  MIC: 3.12 µg/mL
Bacillus subtilis
  MIC: 3.12 µg/mL
Streptococcus faecalis
  MIC: 3.12 µg/mL
[4]; 0 hours
  Concentration in Blood: 0 ng/mL
[4]; 2 hours
  Concentration in Blood: 1200 ng/mL
[4]; 4 hours
  Concentration in Blood: 2970 ng/mL
[4]; 6 hours
  Concentration in Blood: 9070 ng/mL
[4]; 8 hours
  Concentration in Blood: 4260 ng/mL
[4]; 12 hours
  Concentration in Blood: 5620 ng/mL
[4]; 24 hours
  Concentration in Blood: 1500 ng/mL
[4]; suspension in gum arabic
  time to maximum concentration in blood: within several hours
[5]
  LD50: 2950 mg/kg
mouse; in vivo, po
  LD50 Value: 3100 mg/kg
mouse; oral, in words
  acute toxicity: very low
Candida albicans [6]; 50 mg/kg oral
  Survival Ratio: 1/3
  Number of Living Cells in Kidney of Survivor Mouse: substantially annihilated
Candida albicans [6]; 100 mg/kg oral
  Survival Ratio: 2/3
